Measurements as given in patent US12053465B2, “KCC2 expression enhancing compounds and uses thereof” (Whitehead Institute for Biomedical Research, priority 2017, dated 2024).

Legend:
[1] = test system: human RTT neurons; test: Neuronal morphology analysis of cultured human RTT neurons; type: cell-based; details: for neurite complexity (Sholl analysis): vs DMSO- or MeBIO-treated
Description: Moreover, a reduction in the number or the strength of excitatory glutamatergic synapses in RTT neurons has been observed in postmortem RTT patient brain samples (30), mouse models of RTT (53), and human stem cell-derived RTT neurons (54). Electrophysiology recording was utilized to assess whether KEECs could rescue the deficits in EGABA and excitatory synaptic transmission of RTT neurons. […] We further investigated whether the beneficial effect of KEECs is a direct result of the increases in neuronal KCC2 gene expression. […] Deficits in a number of morphological measurements, including nuclei size and neurite complexity and branching, are hallmarks of RTT neurons (54-56). […] To validate the morphological measurements, electrophysiological measurements of the neuronal membrane capacitance (Cm), an indicator of neuronal cell size (57) that is reduced in RTT neurons, were conducted. […] Fluorescent images of randomly-selected neurons were acquired on a Nikon Eclipse Ti epifluorescence microscope equipped with 20× lens. Nucleus size analysis of DAPI-stained neuronal nucleus were performed with ImageJ. Sholl analysis and measurements of the total neurite length and branch points were performed with the Simple Neurite Tracer plugin of the ImageJ software. Morphological analyses were carried out with about 60 randomly-selected neurons per treatment group. Image acquisition and analysis were carried out by different researchers, and automated analysis software pipeline were utilized to reduce human bias.

[2] = test system: KCC2 expression (KCC2-2A-luciferase reporter); test: KCC2-2A-luciferase reporter compound screening with RTT KCC2 reporter neurons; type: cell-based, human; details: for B Score: MECP2-null RTT human KCC2 reporter neurons, LINCS, SMART, ICCB libraries, Luc/CTG normalized to in-plate DMSO, hit = B score >3; for KCC2 reporter activity in RTT neurons: RTT KCC2-2A-luciferase reporter neurons vs in-plate DMSO
Outline: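 MECP2-null RTT human neurons carrying a KCC2-2A-luciferase reporter, differentiated 4 weeks, were treated with library compounds at 10 μM for 1–2 weeks at 37 °C. Lysate luciferase was normalized to CellTiter-Glo ATP per well and expressed as fold change over in-plate DMSO. Hits were called at B score >3.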

O=C1Nc2cc(Br)ccc2/C1=C1/Nc2ccccc2/C1=N\O [BIO, (2Z,3E)-6′-bromo-3-(hydroxyimino)-[2,3′-biindolinylidene]-2′-one]
nucleus size [1]: significantly increase the nucleus size
number of neurite branches [1]: significantly increase
total neurite length [1]: significantly increase
neurite complexity (Sholl analysis) [1]: significant increase in neurite complexity
B Score [2]: 3.42
KCC2 reporter activity in RTT neurons [2]: significant increase of KCC2 reporter activity

O=C(c1ccc(/C=C/c2n[nH]c3ccccc23)cc1)N1CCNCC1 [KW-2449, (E)-(4-(2-(1H-indazol-3-yl)vinyl)phenyl)(piperazin-1-yl)methanone]
nucleus size [1]: significantly increase the nucleus size
number of neurite branches [1]: significantly increase
total neurite length [1]: significantly increase
neurite complexity (Sholl analysis) [1]: significant increase in neurite complexity
B Score [2]: 5.45
KCC2 reporter activity in RTT neurons [2]: significant increase of KCC2 reporter activity
